Experimental data reported in paper PMC12169614, “Exploring Long Arm Amide-Linked Side Chains in the Design of Antifungal Azole Inhibitors of Sterol 14α-Demethylase (CYP51)” (Journal of Medicinal Chemistry, 2025).

Key:
Y2716 OE CpCYP51 Y132F = test: MIC80 determination, strain Y2716; assay type: cell-based, S. cerevisiae; conditions: for increase in resistance owing to the CpCYP51 Y132F mutation: MIC80 Y2716 versus Y2721; for MIC80: Saccharomyces cerevisiae
Procedure: (§1) Cells were seeded at an OD600 nm of 0.005 (1.5 × 10^4 CFU), and the plates were incubated at 30 °C with shaking at 200 rpm for 48 h for S. cerevisiae strains and 24 h for C. albicans . Cell growth was assessed by measuring the OD600 nm using a Synergy 2 multimode plate reader (BioTek Instruments, VT, USA). Each MIC80 was determined using triplicate measurements for pools of 4 clones of each strain in three separate experiments.

[1] = test system: Y2513 ScCYP51 Y140H mutant; test: Agarose (disk) diffusion assay, strain Y2513; assay type: cell-based, S. cerevisiae; conditions: 10 nmol/disk, 30 °C, 48 h
From the text: (§2) Final compounds were screened as racemic mixtures using agarose diffusion assays to visualize their inhibitory activity against a panel of recombinant S. cerevisiae strains i.e., S. cerevisiae strains expressing control levels of wild-type CYP51 (ScCYP51), overexpressed wild-type ScCYP51, overexpressed azole-resistant ScCYP51 Y140F/H mutations and overexpressed C. albicans efflux pumps MDR1a or CDR1B (Figure and Table S1).
(§3) The susceptibilities of S. cerevisiae and Candida species strains to azole compounds were observed as zones of growth inhibition in agarose diffusion assays. The disk diffusion assays were carried out as described by Keniya et al. Complete supplement mixture (CSM) agarose (0.6% agarose [wt/vol]; 20 mL of synthetic defined medium (SD); pH 6.8–7) was solidified in a rectangular Petri dish which was overlaid with CSM agarose (0.6% [wt/vol]; 5 mL; pH 6.8–7) seeded with yeast cells at an optical density (OD600) of 0.008 (118,000 cells per 1 mL of overlay). Azole compounds (10 nmol/disk) were applied to sterile BBL paper disks (Becton Dickinson Co., Sparks, MD) and placed on solidified overlays. Cell growth was assessed after incubation at 30 °C for 48 h.

[2] = test system: Y2746 OE AfCYP51A AfCPR AfERG6; test: MIC80 determination, strain Y2746; assay type: cell-based, S. cerevisiae; conditions: Saccharomyces cerevisiae
Procedure: as §1

Y2459 OE CaCYP51 CaCpr = test: MIC80 determination, strain Y2459; assay type: cell-based, S. cerevisiae; conditions: for MIC80: Saccharomyces cerevisiae, 48 h, pH 6.8; for MIC: read-out: MIC (nM) C. albicans model Y2459
Procedure: as §1

Y433 OE CgCDR1 = test: MIC80 determination, strain Y433; assay type: cell-based, S. cerevisiae; conditions: Saccharomyces cerevisiae
Procedure: as §1

Y2649 OE CYP51 F1 RaCPR = test: MIC80 determination, strain Y2649; assay type: cell-based, S. cerevisiae; conditions: for MIC: Rhizopus arrhizus, read-out: MIC (nM) R. arrhizus model Y2649; for MIC80: Saccharomyces cerevisiae
Procedure: as §1

Y1 = test: MIC80 determination, C. albicans clinical isolate Y1; assay type: cell-based; conditions: Candida albicans, pH 7, 24 h
Procedure: as §1

Y71 SC5314 = test: MIC80 determination, C. albicans clinical isolate Y71 SC5314; assay type: cell-based; conditions: Candida albicans; for MIC: SC5314, supplement csv; for MIC80: C. albicans clinical isolate Y71 SC5314, pH 7, 24 h
Procedure: as §1

Y610 FHB1 = test: MIC80 determination, C. albicans clinical isolate Y610 FHB1; assay type: cell-based; conditions: Candida albicans; C. albicans clinical isolate Y610 FHB1 (weakly expresses CaCDR1); pH 7, 24 h
Procedure: as §1

2711 CnCYP51 OE CnCPR = test: MIC80 determination, strain 2711; assay type: cell-based, S. cerevisiae; conditions: for MIC80: Saccharomyces cerevisiae; for MIC: read-out: MIC (nM) C. neoformans model Y2711
Procedure: as §1

Y2301 OE ScCYP51 Y140F = test: MIC80 determination, strain Y2301; assay type: cell-based, S. cerevisiae; conditions: Saccharomyces cerevisiae; for MIC80: 48 h, pH 6.8; for MIC: read-out: MIC (nM) S. cerevisiae Y2301
Procedure: as §1

Y570 OE CaCDR1B = test: MIC80 determination, strain Y570; assay type: cell-based, S. cerevisiae; conditions: for MIC: Candida albicans, read-out: MIC (nM) C. albicans model Y570; for MIC80: Saccharomyces cerevisiae, 48 h, pH 6.8
Procedure: as §1

[3] = test system: Y2747 OE AfCYP51B AfCPR AfERG6; test: MIC80 determination, strain Y2747; assay type: cell-based, S. cerevisiae; conditions: for MIC: Aspergillus fumigatus, read-out: MIC (nM) A. fumigatus model Y2747; for MIC80: Saccharomyces cerevisiae
Procedure: as §1

[4] = test system: Y570 ABC efflux pump CaCDR1B overexpressed; test: Agarose (disk) diffusion assay, strain Y570; assay type: cell-based, S. cerevisiae; conditions: 10 nmol/disk, 30 °C, 48 h
From the text: as §2, §3

Y2721 OE CpCYP51 = test: MIC80 determination, strain Y2721; assay type: cell-based, S. cerevisiae; conditions: for MIC80: Saccharomyces cerevisiae; for MIC: read-out: MIC (nM) C. parapsilosis model Y2721
Procedure: as §1

Y525 OE CaMDR1a = test: MIC80 determination, strain Y525; assay type: cell-based, S. cerevisiae; conditions: for MIC80: Saccharomyces cerevisiae, 48 h, pH 6.8; for MIC: read-out: MIC (nM) C. albicans model Y525
Procedure: as §1

Y2411 Endog. ScCYP51 = test: MIC80 determination, strain Y2411; assay type: cell-based, S. cerevisiae; conditions: Saccharomyces cerevisiae; for MIC80: strain Y2411 Endog. ScCYP51, SD pH 6.8, 30 °C, 48 h; for MIC: supplement csv, read-out: MIC (nM) S. cerevisiae Y2411
Procedure: as §1

Y2651 OE CYP51 F5 RaCPR = test: MIC80 determination, strain Y2651; assay type: cell-based, S. cerevisiae; conditions: Saccharomyces cerevisiae
Procedure: as §1

Y2300 OE ScCYP51 = test: MIC80 determination, strain Y2300; assay type: cell-based, S. cerevisiae; conditions: Saccharomyces cerevisiae; for MIC80: 48 h, pH 6.8; for MIC: read-out: MIC (nM) S. cerevisiae Y2300
Procedure: as §1

Y2513 OE ScCYP51 Y140H = test: MIC80 determination, strain Y2513; assay type: cell-based, S. cerevisiae; conditions: Saccharomyces cerevisiae; for MIC80: 48 h, pH 6.8; for MIC: read-out: MIC (nM) S. cerevisiae Y2513
Procedure: as §1

[5] = test system: Y525 MFS efflux pump CaMDR1a overexpressed; test: Agarose (disk) diffusion assay, strain Y525; assay type: cell-based, S. cerevisiae; conditions: 10 nmol/disk, 30 °C, 48 h
From the text: as §2, §3

Y2374 OE CgCYP51 = test: MIC80 determination, strain Y2374; assay type: cell-based, S. cerevisiae; conditions: Saccharomyces cerevisiae; for MIC: read-out: MIC (nM) C. glabrate model Y2374
Procedure: as §1

Y611 FHB3 = test: MIC80 determination, C. albicans clinical isolate Y611 FHB3; assay type: cell-based; conditions: Candida albicans, 24 h, pH 7
Procedure: as §1

[6] = test system: Y2301 ScCYP51 Y140F mutant; test: Agarose (disk) diffusion assay, strain Y2301; assay type: cell-based, S. cerevisiae; conditions: 10 nmol/disk, 30 °C, 48 h
From the text: as §2, §3

[7] = test system: Y2300 ScCYP51 overexpressed; test: Agarose (disk) diffusion assay, strain Y2300; assay type: cell-based, S. cerevisiae; conditions: 10 nmol/disk, 30 °C, 48 h
From the text: as §2, §3

[8] = test system: Y2411 azole sensitive control strain; test: Agarose (disk) diffusion assay, strain Y2411; assay type: cell-based, S. cerevisiae; conditions: 10 nmol/disk, 30 °C, 48 h
From the text: as §2, §3

| SMILES | increase in resistance owing to the CpCYP51 Y132F mutation (Y2716 OE CpCYP51 Y132F) [fold] | MIC80 (Y2716 OE CpCYP51 Y132F) [µM] | zone of growth inhibition (inhibitory activity in words) [1] | MIC80 [2] [µM] | MIC80 (Y2459 OE CaCYP51 CaCpr) [µM] | MIC (Y2459 OE CaCYP51 CaCpr) [nM] | MIC80 (Y433 OE CgCDR1) [µM] | MIC (Y2649 OE CYP51 F1 RaCPR) [nM] | MIC80 (Y2649 OE CYP51 F1 RaCPR) [µM] | MIC80 (Y1) [µM] | MIC (Y71 SC5314) [nM] | MIC80 (Y71 SC5314) [µM] | MIC80 (Y610 FHB1) [µM] | MIC80 (2711 CnCYP51 OE CnCPR) [µM] | MIC (2711 CnCYP51 OE CnCPR) [nM] | MIC80 (Y2301 OE ScCYP51 Y140F) [µM] | MIC (Y2301 OE ScCYP51 Y140F) [nM] | MIC (Y570 OE CaCDR1B) [nM] | zone of growth inhibition (inhibitory activity in words) [6] | zone of growth inhibition (inhibitory activity in words) [7] | other results |
| --- | --- | --- | --- | --- | --- | --- | --- | --- | --- | --- | --- | --- | --- | --- | --- | --- | --- | --- | --- | --- | --- |
| O=C(NCC(O)(Cn1cncn1)c1ccc(F)cc1F)c1ccc2cc(F)ccc2c1 (centres unmarked) [Compound 14, N-(2-(2,4-Difluorophenyl)-2-hydroxy-3-(1H-1,2,4-triazol-1-yl)propyl)-6-fluoro-2-naphthamide] | > 19 | 1 | showed activity | > 15 | 0.054 ± 0.021 | 54 ± 21 | 9.2 ± 0.707 | 83 | 0.083 | 0.01 | 18 | 0.018 | 0.075 | 0.005 | 5 | 0.326 ± 0.048 | 326 ± 48 | 33500 | showed activity |  | MIC80 (Y570 OE CaCDR1B): 33.5 µM; MIC [3]: 300 nM; MIC80 [3]: 0.3 µM; zone of growth inhibition (inhibitory activity in words) [4]: no effect; MIC80 (Y2721 OE CpCYP51): 0.024 µM; MIC (Y2721 OE CpCYP51): 24 nM; MIC80 (Y525 OE CaMDR1a): > 1 µM; MIC (Y525 OE CaMDR1a): > 1000 nM; MIC80 (Y2411 Endog. ScCYP51): 0.015 ± 0.003 µM; MIC (Y2411 Endog. ScCYP51): 15 ± 3 nM; MIC80 (Y2651 OE CYP51 F5 RaCPR): 3.5 µM; MIC80 (Y2300 OE ScCYP51): 0.048 ± 0.004 µM; MIC (Y2300 OE ScCYP51): 48 ± 4 nM; MIC80 (Y2513 OE ScCYP51 Y140H): 0.632 ± 0.123 µM; MIC (Y2513 OE ScCYP51 Y140H): 632 ± 123 nM; zone of growth inhibition (inhibitory activity in words) [5]: reduced effect; MIC80 (Y2374 OE CgCYP51): 0.047 ± 0.006 µM; MIC (Y2374 OE CgCYP51): 47 ± 6 nM; MIC80 (Y611 FHB3): 2.4 µM |
| O=C(Nc1ccc(CNC(=O)C(Cn2cncn2)c2ccc(F)cc2F)cc1)c1ccc(Cl)cc1 (centres unmarked) [Compound 44, 4-Chloro-N-(4-((2-(2,4-difluorophenyl)-3-(1H-1,2,4-triazol-1-yl)propanamido)methyl)phenyl)benzamide] |  |  | reduced activity |  |  |  |  |  |  |  |  |  |  |  |  |  |  |  | reduced activity | strongly inhibited | zone of growth inhibition (inhibitory activity in words) [4]: not the CaCDR1B expressing strain; zone of growth inhibition (inhibitory activity in words) [8]: strongly inhibited; zone of growth inhibition (inhibitory activity in words) [5]: retained some inhibitory activity |
| O=C(Nc1ccc(CNC(=O)C(Cn2cncn2)c2ccc(F)cc2F)cc1)c1cccnc1 (centres unmarked) [Compound 47, N-(4-((2-(2,4-Difluorophenyl)-3-(1H-1,2,4-triazol-1-yl)propanamido)methyl)phenyl)nicotinamide] |  |  |  |  |  |  |  |  |  |  |  |  |  |  |  |  |  |  |  | did not inhibit | zone of growth inhibition (inhibitory activity in words) [8]: poorly inhibited |
| O=C(NCC(O)(Cn1cncn1)c1ccc(F)cc1F)c1cccc(-c2ccc(OC(F)(F)F)cc2)c1 (centres unmarked) [Compound 24, N-(2-(2,4-Difluorophenyl)-2-hydroxy-3-(1H-1,2,4-triazol-1-yl)propyl)-4’-(trifluoromethoxy)-[1,1’-biphenyl]-3-carboxamide] | > 19 | 1.75 | significantly greater resistance | 2.7 | 0.116 ± 0.061 | 116 ± 61 | 11.8 | 16 | 0.016 | 0.12 | 85 | 0.085 | 0.37 ± 0.042 | 0.002 | 2 | 0.419 ± 0.083 | 419 ± 83 | 17000 | significantly greater resistance |  | MIC80 (Y570 OE CaCDR1B): 17 µM; MIC [3]: 50 nM; MIC80 [3]: 0.05 µM; MIC80 (Y2721 OE CpCYP51): 0.094 µM; MIC (Y2721 OE CpCYP51): 94 nM; MIC80 (Y525 OE CaMDR1a): 0.43 µM; MIC (Y525 OE CaMDR1a): 430 nM; MIC80 (Y2411 Endog. ScCYP51): 0.03 µM; MIC (Y2411 Endog. ScCYP51): 30 nM; MIC80 (Y2651 OE CYP51 F5 RaCPR): 1.4 µM; MIC80 (Y2300 OE ScCYP51): 0.163 ± 0.061 µM; MIC (Y2300 OE ScCYP51): 163 ± 61 nM; MIC80 (Y2513 OE ScCYP51 Y140H): 0.719 ± 0.001 µM; MIC (Y2513 OE ScCYP51 Y140H): 719 ± 1 nM; MIC80 (Y2374 OE CgCYP51): 0.168 µM; MIC (Y2374 OE CgCYP51): 168 nM; MIC80 (Y611 FHB3): 3.4 µM |
| O=C(Nc1ccc(CNC(=O)C(Cn2cncn2)c2ccc(F)cc2F)cc1)c1cnccn1 (centres unmarked) [Compound 48, N-(4-((2-(2,4-Difluorophenyl)-3-(1H-1,2,4-triazol-1-yl)propanamido)methyl)phenyl)pyrazine-2-carboxamide] |  |  |  |  |  |  |  |  |  |  |  |  |  |  |  |  |  |  |  | lower inhibitory activity |  |
